The subject of the first test is IL-1β release from THP-1 cells. The test can be described thus: IL-1β Release Assay (Alternate Method), THP-1 cells. The note with it: at 0.3 μM; THP-1 cells. In kind it is cell-based, human. The procedure:
THP-1 cells (ATCC Cat #285-IF-100) are plated in 96 well plates at a concentration of 200,000 cells per well and allowed to differentiate in RPMI-1640 media (ATCC Cat #30-2001) containing 10% FBS, 100 IU/mL penicillin, 100 ug/mL streptomycin, 100 ng/mL LPS and 100 ng/mL IFN-γ for 16 hours. Following differentiation, the cells are treated for an additional 2 hours in RPMI-1640 media containing 100 IU/mL penicillin, 100 ug/mL streptomycin and fresh LPS at 100 ng/mL. The cells are then pretreated for 30 minutes with the compound of interest at the appropriate concentration in RPMI media containing 100 IU/mL penicillin, 100 ug/mL streptomycin. Following the pretreatment 2′, 3′-O-(4-benzoylbenzoyl)-adenosine 5′-triphosphate (Sigma Aldrich Cat#B6396) is added to a final concentration of 250 uM and the cells incubated for an additional 45 minutes. 30 uL of cell supernatant is then collected and IL-1β levels determined via ELISA (R&D systems Cat. #HSLB50) according to manufacturer's recommendations using the Tecan Safire plate reader. Background adjusted IL-1β levels of drug treated and non-treated cells are used to calculate the percent inhibition.
As to `Cc1oncc1C(=O)N1CCc2c(ncnc2NC(=O)CC23CC4CC(CC(C4)C2)C3)C1` [Compound 299], the IL-1β % inhibition result was “+ (compound exhibited 0-25% inhibition at 0.3 μM)”.

Turning to `CC(C)Oc1ccc(CN2CCc3c(ncnc3NC(=O)CC34CC5CC(CC(C5)C3)C4)C2)cc1` [Compound 113], the IL-1β % inhibition result is “+ (compound exhibited 0-25% inhibition at 0.3 μM)”.

On to `O=C(CC12CC3CC(CC(C3)C1)C2)Nc1ncnc2c1CCN(Cc1cc(F)ccc1C(F)(F)F)C2` [Compound 96], for which the IL-1β % inhibition result is reported as “+ (compound exhibited 0-25% inhibition at 0.3 μM)”.

With `CC(C)(C(=O)Nc1ncnc2c1CCN(C(=O)c1ccc(Cl)c(Cl)c1)C2)C12CC3CC(CC(C3)C1)C2` [Compound 360], the IL-1β % inhibition result was “+ (compound exhibited 0-25% inhibition at 0.3 μM)”.

As for `CCN1CCc2c(ncnc2NC(=O)CC2CCCCC2)C1` [Compound 20], the IL-1β % inhibition result is reported as “+ (compound exhibited 0-25% inhibition at 0.3 μM)”.

Regarding `O=C(CC12CC3CC(CC(C3)C1)C2)Nc1ncnc2c1CCN(Cc1ccc3ccccc3n1)C2` [Compound 73], the IL-1β % inhibition result was “+ (compound exhibited 0-25% inhibition at 0.3 μM)”.

Consider `O=C(CC1CCCCCC1)Nc1ncnc2c1CCNC2` [Compound 12], for which the IL-1β % inhibition result was “+ (compound exhibited 0-25% inhibition at 0.3 μM)”.

For the molecule `Cc1cc(S(=O)(=O)N2CCc3c(ncnc3NC(=O)CC34CC5CC(CC(C5)C3)C4)C2)c(C(F)(F)F)o1` [Compound 159], the IL-1β % inhibition entry is given as “+ (compound exhibited 0-25% inhibition at 0.3 μM)”.

With `CSc1ccc(CN2CCc3c(ncnc3NC(=O)CC34CC5CC(CC(C5)C3)C4)C2)cc1` [Compound 116], the IL-1β % inhibition result is reported as “+ (compound exhibited 0-25% inhibition at 0.3 μM)”.

Regarding `O=C(CC12CC3CC(CC(C3)C1)C2)Nc1ncnc2c1CCN(S(=O)(=O)c1ccc(F)cc1F)C2` [Compound 209], the IL-1β % inhibition entry was “++++ (compound exhibited 75% or greater inhibition at 0.3 μM)”.

Regarding `O=C(NCC1CCCCC1)c1ncnc2c1CCN(Cc1cccnc1)C2` [Compound 48], the IL-1β % inhibition entry is recorded as “+ (compound exhibited 0-25% inhibition at 0.3 μM)”.

Take `Cc1noc(C)c1C(=O)N1CCc2c(ncnc2NC(=O)CC23CC4CC(CC(C4)C2)C3)C1` [Compound 297]: the IL-1β % inhibition result was “+ (compound exhibited 0-25% inhibition at 0.3 μM)”.

Consider `CC12CC3CC(C)(C1)CC(CC(=O)Nc1ncnc4c1CCN(S(=O)(=O)c1cccc(Cl)c1)C4)(C3)C2` [Compound 380], for which the IL-1β % inhibition entry is “+ (compound exhibited 0-25% inhibition at 0.3 μM)”.

With `O=C(CC12CC3CC(CC(C3)C1)C2)Nc1ncnc2c1CCN(C(=O)CCc1ccccc1)C2` [Compound 248], the IL-1β % inhibition entry is “+ (compound exhibited 0-25% inhibition at 0.3 μM)”.

Consider `CCc1ccc(CN2CCc3c(ncnc3NC(=O)CC34CC5CC(CC(C5)C3)C4)C2)cc1` [Compound 45], for which the IL-1β % inhibition entry is “+ (compound exhibited 0-25% inhibition at 0.3 μM)”.

Staying with this test, now noted: at 0.3 μM; THP-1 cells, BzATP-stimulated.
For the molecule `Cc1nc(S(=O)(=O)N2CCc3c(ncnc3NC(=O)C34CC5CC(CC(C5)C3)C4)C2)cn1C` [Compound 499], the IL-1β % inhibition result is “+ (compound exhibited 0-25% inhibition at 0.3 μM)”.

With `O=C(Nc1ncnc2c1CCN(S(=O)(=O)c1ccc(Oc3ccccc3)cc1)C2)C12CC3CC(CC(C3)C1)C2` [Compound 524], the IL-1β % inhibition result is reported as “++++ (compound exhibited 75% or greater inhibition at 0.3 μM)”.

On to `CCS(=O)(=O)N1CCc2c(ncnc2NC(=O)C23CC4CC(CC(C4)C2)C3)C1` [Compound 486], for which the IL-1β % inhibition result is on record as “+ (compound exhibited 0-25% inhibition at 0.3 μM)”.

For the molecule `N#Cc1cccc(CN2CCc3c(ncnc3NC(=O)C34CC5CC(CC(C5)C3)C4)C2)c1` [Compound 571], the IL-1β % inhibition result is “++++ (compound exhibited 75% or greater inhibition at 0.3 μM)”.

For the molecule `COc1ccc(C(=O)N2CCc3c(ncnc3NC(=O)C34CC5CC(CC(C5)C3)C4)C2)cc1OC` [Compound 476], the IL-1β % inhibition entry is given as “++ (compound exhibited 25-50% inhibition at 0.3 μM)”.

On to `COc1ccc(S(=O)(=O)N2CCc3c(ncnc3NC(=O)C34CC5CC(CC(C5)C3)C4)C2)cc1` [Compound 487], for which the IL-1β % inhibition entry was “++ (compound exhibited 25-50% inhibition at 0.3 μM)”.

Values taken from US7297700B2, “Bicycloheteroaryl compounds as P2X7 modulators and uses thereof” (Renovis, Inc., priority 2005, dated 2007).
